In data set [1] the target is CYP3A4 (Homo sapiens, UniProt P08684). Nature of the data set: fluorogenic CYP450 inhibition assay. It counts as biochemical.
Data set [2] deals with CYP2C9 (Homo sapiens, UniProt P11712). Briefly: in vitro.

A value given as a limit tells only on which side of the number the result lay.

Sequence of CYP2C9 (P11712 whole entry): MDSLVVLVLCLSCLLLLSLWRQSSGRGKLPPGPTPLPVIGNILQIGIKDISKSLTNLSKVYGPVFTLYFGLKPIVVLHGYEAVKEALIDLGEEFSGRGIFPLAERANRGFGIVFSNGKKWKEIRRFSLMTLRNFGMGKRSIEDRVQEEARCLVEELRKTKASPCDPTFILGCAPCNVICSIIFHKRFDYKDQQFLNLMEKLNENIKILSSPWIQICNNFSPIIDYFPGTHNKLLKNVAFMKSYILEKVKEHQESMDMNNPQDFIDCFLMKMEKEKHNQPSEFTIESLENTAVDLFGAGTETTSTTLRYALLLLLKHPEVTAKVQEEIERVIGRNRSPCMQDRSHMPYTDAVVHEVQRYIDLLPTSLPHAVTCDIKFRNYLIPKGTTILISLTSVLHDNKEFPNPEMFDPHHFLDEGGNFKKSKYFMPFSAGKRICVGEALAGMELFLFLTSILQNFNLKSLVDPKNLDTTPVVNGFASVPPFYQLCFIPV
Sequence of CYP2C9 (P16435 2-677 partner): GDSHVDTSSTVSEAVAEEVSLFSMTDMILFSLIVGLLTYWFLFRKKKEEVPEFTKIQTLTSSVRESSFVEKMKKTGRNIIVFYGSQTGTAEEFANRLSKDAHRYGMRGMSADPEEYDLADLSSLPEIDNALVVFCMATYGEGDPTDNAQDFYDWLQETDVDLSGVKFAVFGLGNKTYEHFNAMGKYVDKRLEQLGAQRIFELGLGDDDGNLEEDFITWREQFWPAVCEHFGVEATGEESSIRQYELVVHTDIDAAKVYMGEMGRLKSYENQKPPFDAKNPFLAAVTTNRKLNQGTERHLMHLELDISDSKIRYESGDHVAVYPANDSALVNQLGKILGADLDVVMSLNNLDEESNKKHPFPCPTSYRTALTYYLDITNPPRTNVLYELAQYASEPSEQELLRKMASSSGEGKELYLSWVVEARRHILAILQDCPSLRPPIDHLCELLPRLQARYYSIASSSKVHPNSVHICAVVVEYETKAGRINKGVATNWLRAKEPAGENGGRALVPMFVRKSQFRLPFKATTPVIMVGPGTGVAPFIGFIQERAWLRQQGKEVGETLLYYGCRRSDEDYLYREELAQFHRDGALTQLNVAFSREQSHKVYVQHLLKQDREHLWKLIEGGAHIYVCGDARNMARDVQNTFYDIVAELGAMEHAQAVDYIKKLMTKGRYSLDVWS
Sequence of CYP3A4 (P08684 2-503): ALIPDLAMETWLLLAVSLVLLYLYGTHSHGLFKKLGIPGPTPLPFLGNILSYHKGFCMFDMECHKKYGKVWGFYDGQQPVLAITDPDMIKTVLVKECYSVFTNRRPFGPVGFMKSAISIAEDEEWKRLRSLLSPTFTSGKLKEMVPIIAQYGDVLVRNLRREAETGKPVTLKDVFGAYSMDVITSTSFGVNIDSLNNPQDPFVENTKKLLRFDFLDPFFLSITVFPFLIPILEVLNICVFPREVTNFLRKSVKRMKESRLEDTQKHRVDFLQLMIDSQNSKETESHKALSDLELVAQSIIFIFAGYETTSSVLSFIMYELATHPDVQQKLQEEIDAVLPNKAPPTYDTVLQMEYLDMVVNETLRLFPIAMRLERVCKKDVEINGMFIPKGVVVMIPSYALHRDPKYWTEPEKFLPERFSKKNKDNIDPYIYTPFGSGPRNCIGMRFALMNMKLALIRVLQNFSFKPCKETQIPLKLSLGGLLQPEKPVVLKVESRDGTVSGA
Sequence of CYP3A4 (P16435 2-677 partner): as the sequence (P16435 2-677 partner) above

In turn, `CC(=O)N1CCN(c2ccc(OC[C@H]3CO[C@](Cn4ccnc4)(c4ccc(Cl)cc4Cl)O3)cc2)CC1` (relative stereo) [ketoconazole] gave an activity at 0.1 µM in data set [1] of less than 40%.
As to `Nc1ccc(S(=O)(=O)Nc2ccnn2-c2ccccc2)cc1` [sulfaphenazole], the activity at 0.25 µM in data set [2] was approximately 50%.
